Assay results taken from patent US20130005783A1, “Prevention And Treatment Of Diseases Caused By Elevated Levels Of Deoxy-Sphingolipids” (priority 2010, published 2013).

Assays:
cellular SPT activity = test: Accumulation of sphingoid bases in HEK 293 wt cells treated with fumonisin B1 and cytostatics; format: cell-based; conditions: for DoxSA generation / SA (sphinganine) generation / accumulation: fumonisin B1, increasing concentrations of drug
Protocol: HEK 293 wt cells were cultured in the presence of increasing concentrations of paclitaxel (FIG. 6-I), etoposide (FIG. 6-II) and thalidomide (FIG. 6-III). The cells were additionally treated with fumonisin B1 (FB1), an inhibitor of ceramide synthase (CerS). The inhibition of CerS leads to an intracellular accumulation of the SPT products, namely sphinganine, deoxy-sphinganine. Since the SPT reaction is the rate limiting step in the de novo synthesis pathway, the amount of accumulated sphingoid bases is a measure of the cellular SPT activity. […] Etoposide increased sphinganine and DoxSA production. […] In contrast to paclitaxel and etiposide, the non-cytostatic thalidomide (FIG. 6-III) had no effect.
(§1) A further suitable method to screen for putative suppressors of deoxy-sphingolipid synthesis is as follows: a suitable cell line (e.g. HEK293) is cultured to approximately 60% confluency. The compound of interest is added to the culture medium in the appropriate concentration. Additionally, fumonisin B1 (FB1) is added to a final concentration of 10 μg/ml. After 24 h of incubation, cells are washed with PBS and harvested and an aliquot separated for cell counting. The remaining cells are pelleted and extracted in 500 μl extraction buffer (4 volumes MeOH/KOH+1 volume CHCl3), including an internal reference standard (e.g. deuteriated (d7)-sphinganine, (d7)-sphingosine or synthetic C17-sphingosine). Subsequently, 500 μl chloroform, 500 μl alkaline water and 100 μl 2N ammonia are added, followed by centrifugation (120000×g, 5 min). The upper phase is discarded and the organic phase washed twice with alkaline water. Lipids are dried under a stream of N2 and resolubilized in 50 μl ethanol (95%) and 100 μl methanol:H2O (85:15). The lipids are finally derivatized with o-phthaldialdehyde (OPA) and analysed by LC-MS. OPA derivates are separated on a C18 column. Mobile phase is ammonium acetate (5 mM):methanol=17:83 (25 min, isocratic), followed by a wash with 100% methanol (5 min) at a flow rate of 300 μl/min. Deoxysphingoid bases are ionised by APCI (atmospheric pressure chemical ionisation) and analysed in positive ion mode.

[1] = system: mutated form of SPT (C133W); format: cell-based; conditions: HEK293 C133W; for SPT activity: fumonisin B1 24 h, 1 mM L-cycloserine, 10 mM D-serine
Protocol: Cells were cultivated in normal media without any supplementation (A) or in the presence of 10 mM L-alanine (B), 10 mM glycine (C); 1 mM L-cycloserine (D); 10 mM D-alanine (E), 10 mM D-serine (F) or 10 mM L-serine (G).
HEK293 cells expressing a mutated form of SPT (C133W) were cultured in the presence of various amino acids and structurally related compounds. The cells were additionally treated with fumonisin B1 (see Example 1).
as §1

HSAN1 mice = test: L-serine or L-alanine enriched diet in transgenic HSAN1 mice (C133W SPTLC1); format: in vivo
Description: Mice received an L-serine or L-alanine enriched diet (10% L-Serine or L-Alanine w/w) for a period 15 days. […] Plasma deoxy-sphingolipid levels remained low during the whole treatment period (A, pmol/ml; B, days).
Transgenic mice expressing a mutant (C133W) form of SPTLC1 develop a peripheral neuropathy within 10 to 15 months of life. The development of a neuropathy in these HSAN1 mice correlates with highly elevated deoxy-sphinganine and deoxy-sphingosine plasma levels.

SPT (wt enzyme) = test: DoxSA formation in HEK293 wt cells at various L-serine:L-alanine ratios in the presence of FB1; format: cell-based; conditions: increasing L-serine medium concentrations, varying L-alanine concentrations
Protocol: (§2) HEK293 wt cells (FIG. 7-I) and Hek cells expressing various mutant forms of SPT (wt, C133W, C133Y, V144D) (FIG. 7-II) were cultured at various L-serine:L-alanine ratios in the presence of FB1 (see above Example 1). […] In the second approach L-alanine concentrations were held constant at 2 mM.
as §1, with “The upper phase is discarded and the organic phase washed twice with alkaline water. Lipids are dried under a stream of N2 and resolubilized in 50 μl ethanol (95%) and 100 μl methanol:H2O (85:15).” left out, “OPA derivates are separated on a C18 column. Mobile phase is ammonium acetate (5 mM):methanol=17:83 (25 min, isocratic), followed by a wash with 100% methanol (5 min) at a flow rate of 300 μl/min.” left out

[2] = system: mutant forms of SPT (C133W, C133Y, V144D); test: DoxSA formation in Hek cells expressing mutant forms of SPT at increasing L-serine in the presence of FB1; format: cell-based; conditions: HSAN1 mutants C133W, increasing L-serine medium concentrations, L-alanine constant at 2 mM
Protocol: as §2
as §1, with “The upper phase is discarded and the organic phase washed twice with alkaline water. Lipids are dried under a stream of N2 and resolubilized in 50 μl ethanol (95%) and 100 μl methanol:H2O (85:15).” left out, “OPA derivates are separated on a C18 column. Mobile phase is ammonium acetate (5 mM):methanol=17:83 (25 min, isocratic), followed by a wash with 100% methanol (5 min) at a flow rate of 300 μl/min.” left out

HSAN1 patients = test: Oral L-serine supplementation in HSAN1 patients (C133Y); format: in vivo, humans
Protocol: (A, weeks, B, μM; C, treatment phase; D, washout phase).
14 HSAN1 patients having the C133Y mutation received an oral serine supplementation for a period of 10 weeks followed by a wash out period of two weeks (FIG. 9). Patients were separated in a low dose and a high dose treatment group (n per group=7) receiving either 5 g or 10 g L-serine/day. The plasma sphingolipid composition was analyzed by an acid/base hydrolysis to release the free sphingoid bases. […] In both groups an up to 80% reduction in plasma deoxy-sphingolipid levels was observed. […] During the wash out phase the plasma deoxy-sphingolipid levels raised again.

[3] = fumonisin B1, 10 mM supplementation

In the case of `COc1cc([C@@H]2c3cc4c(cc3[C@@H](O[C@@H]3O[C@@H]5CO[C@@H](C)O[C@H]5[C@H](O)[C@H]3O)[C@H]3COC(=O)[C@H]23)OCO4)cc(OC)c1O` [Etoposide, etoposide], the “concentration at which DoxSA showed a maximum” value (cellular SPT activity; fumonisin B1) is reported as 0.5 mM, the DoxSA generation (cellular SPT activity) is reported as “increased” and the “SA (sphinganine) generation / accumulation” value (cellular SPT activity) is reported as “increased in a dose dependant manner”.
In the case of `N[C@H](CO)C(=O)O` [D-serine], the SPT activity [1] is reported as “generally inhibitory”.
In the case of `C[C@H](N)C(=O)O` [L-alanine, reference compound], the formation of deoxy-sphinganine [1, 3] is reported as “increased formation”, the plasma deoxy-sphingolipid levels (HSAN1 mice; enriched diet) is reported as “increased” and the “time to first neuropathic symptoms” value (HSAN1 mice; enriched diet) is reported as 2-3 months.
In the case of `NCC(=O)O` [glycine, reference compound], the formation of deoxymethyl-sphinganine [1, 3] is reported as “stimulate the formation”.
In the case of `N[C@@H]1CON=C1O` [cycloserine, reference compound], the SPT activity [1] is reported as “generally inhibitory”.
For `O=C1CCC(N2C(=O)c3ccccc3C2=O)C(=O)N1` (centres unmarked) [thalidomide], the DoxSA generation (cellular SPT activity) was “no effect” and the “SA (sphinganine) generation / accumulation” value (cellular SPT activity) was “no effect”.
In the case of `N[C@@H](CO)C(=O)O` [L-serine], the DoxSA formation (SPT (wt enzyme)) is reported as “significant decrease”, the DoxSA formation [2] is reported as “significant decrease” and the DoxSA formation ([2]; listed as L-erine) is reported as “efficiently inhibited”. For the same molecule, the formation of sphinganine [1, 3] was “stimulates the formation”, the “generation of deoxy-sphingoid bases” value [1, 3] was “suppresses” and the “plasma deoxy-sphinganine and deoxy-sphingosine levels vs untreated mice” value (HSAN1 mice; enriched diet 10% w/w for 15 days, 3-4 days after start of treatment) was “remarkable reduction”. The “reduction in plasma deoxy-sphinganine and deoxy-sphingosine levels” value (HSAN1 mice; enriched diet 10% w/w, after 4-5 days of treatment) was “up to 80%”, the development of neuropathy (HSAN1 mice; enriched diet, until end of study (18 months), untreated controls neuropathic after 8 to 9 months) was “did not develop a neuropathy” and the “difference between low and high dose group” value (HSAN1 patients; 5 g vs 10 g/day, plasma deoxy-sphingolipid levels) was “No significant differences”. The “time to maximal suppression of plasma deoxy-sphinganine and deoxy-sphingosine levels” value (HSAN1 patients; HSAN1 patients C133Y, oral 5 g or 10 g/day) was 6 weeks, the “reduction in plasma deoxy-sphingolipid levels” value (HSAN1 patients; HSAN1 patients C133Y, oral 5 g or 10 g/day, 10 weeks, both groups) was “up to 80%” and the “deoxy-sphingolipid plasma levels during treatment period” value (HSAN1 patients; HSAN1 patients C133Y, oral treatment over ten weeks, until end of treatment) was “remained suppressed”. For the same molecule, the “plasma deoxy-sphingolipid levels during wash out phase” value (HSAN1 patients; two weeks wash out after 10 weeks of treatment) was “raised again”.
`CC(=O)O[C@H]1C(=O)[C@@]2(C)[C@H]([C@H](OC(=O)c3ccccc3)[C@]3(O)C[C@H](OC(=O)[C@H](O)[C@@H](NC(=O)c4ccccc4)c4ccccc4)C(C)=C1C3(C)C)[C@]1(OC(C)=O)CO[C@@H]1C[C@@H]2O` [Paclitaxel, paclitaxel] was tested, and the DoxSA generation (cellular SPT activity) was “stimulated DoxSA generation in a dose dependant manner” and the “SA (sphinganine) generation / accumulation” value (cellular SPT activity) was “not altered”.
